PMC3038857, “Using Nuclear Receptor Activity to Stratify Hepatocarcinogens” (PLoS ONE, 2011)
Read-outs that look alike come from different tables or passages of the source.

How the values were obtained:
liver [1] = settings: cited from earlier work
liver [2] = settings: in vivo
AhR = assay: Aggregate nuclear receptor activity: AhR; settings: aggregate human NR activity, in words
Source text: (§1) To summarize the activity of chemicals across the NR superfamily we aggregated the ToxCast assays for genes and NR groups as follows: retinoic X receptor-like (RXR; [drawing 5]; NR2B); peroxisome proliferator-activated receptor-like (PPAR; [drawing 6]; NR1C); constitutive androstane receptor ( [drawing 7]; [drawing 8]; [drawing 9] ); pregnane X receptor ( [drawing 10]; [drawing 11] ); liver X receptor-like (LXR; [drawing 12] , FXR; NR1H); and steroid receptor-like (SR; [drawing 13] , [drawing 14] , [drawing 15] ). These are shown visually in Figure 1(a). As there were differences in the number and types of assays for each group, aggregate activity was calculated as the average potency across the assays measured by the AC50 or LEC (described in Methods). This approach aggregated NR binding, activation, agonism or antagonism results into a single assessment of activity.
(§2) All data used in this analysis are publicly available from the ToxCast website (www.epa.gov/toxcast). The analysis was conducted using the R statistical language (www.r-project.org). For each chemical [drawing 77] , and assay [drawing 78] combination we derived either the AC50 (50% maximal activity concentration) or LEC (Lowest Effective Concentration) in [drawing 79] M denoted as, [drawing 80] . All chemicals are provided in Dataset S3 and all assays are given in Dataset S1. The procedure for evaluating the quality of [drawing 81] are described in the supplementary methods (Text S1) and all assay results are provided in Dataset S2. In order to facilitate comparison across the assays the [drawing 82] were transformed by the formula, [drawing 83] where [drawing 84] represents a the potency on an ascending scale, and [drawing 85] is the maximum concentration (lowest potency) across the data set.
(§3) The aggregate NR activity [drawing 86] , where [drawing 87] , was calculated using assays [drawing 88] . The aggregate scaled NR activity score for each chemical [drawing 89] was calculated as the average concentration value across the assays, scaled by the maximum value across all chemicals using Equation 1. [drawing 90] (1)

PXR = assay: Aggregate nuclear receptor activity: PXR; design: species or system human; settings: aggregate human NR activity, in words
Source text: as §1, §2, §3

[3] = tested on: SR (steroid receptor-like); assay: Aggregate nuclear receptor activity: SR; settings: aggregate human NR activity, in words
Source text: as §1, §2, §3

CAR = assay: Aggregate nuclear receptor activity: CAR; settings: aggregate human NR activity, in words
Source text: as §1, §2, §3

PPAR = assay: Aggregate nuclear receptor activity: PPAR; settings: aggregate human NR activity, in words
Source text: as §1, §2, §3

[4] = target: T1, ESR1 (estrogen receptor 1) (Homo sapiens, UniProt P03372); assay: ATG_ERa_TRANS: Factorial reporter gene assay (HepG2); type: cell-based; settings: HepG2 reporter
T1 construct: expressed in transfected cells; host or cells: HepG2
T1 sequence (P03372 whole entry): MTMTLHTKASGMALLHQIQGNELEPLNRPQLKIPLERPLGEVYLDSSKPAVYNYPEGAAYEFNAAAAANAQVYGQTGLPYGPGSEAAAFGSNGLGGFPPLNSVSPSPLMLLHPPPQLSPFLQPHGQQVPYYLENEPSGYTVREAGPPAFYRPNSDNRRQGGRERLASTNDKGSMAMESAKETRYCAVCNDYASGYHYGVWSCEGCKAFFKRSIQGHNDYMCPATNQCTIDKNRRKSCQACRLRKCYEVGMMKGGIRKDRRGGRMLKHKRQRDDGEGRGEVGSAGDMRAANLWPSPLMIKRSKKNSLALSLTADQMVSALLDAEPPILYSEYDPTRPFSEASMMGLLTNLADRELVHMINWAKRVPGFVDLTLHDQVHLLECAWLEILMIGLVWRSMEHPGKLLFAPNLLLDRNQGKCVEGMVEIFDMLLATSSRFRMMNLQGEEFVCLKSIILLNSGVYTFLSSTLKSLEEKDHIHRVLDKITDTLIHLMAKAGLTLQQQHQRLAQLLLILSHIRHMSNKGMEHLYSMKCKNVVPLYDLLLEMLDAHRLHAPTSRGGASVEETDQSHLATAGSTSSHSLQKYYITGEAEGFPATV
Method in brief: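 Seven concentrations per chemical, three-fold dilutions down from the MTC, were tested in HepG2 hepatoma cells. Those cells carried a multiple reporter transcription unit library, read either as cis transcription-factor-site reporters or as a trans mammalian one-hybrid panel for nuclear receptors.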

Rat Liver [5] = settings: chronic study, rat liver; ref ToxRefDB; cited from earlier work
PXR (NR1I2) [6] = target: T2, PXR (NR1I2) (Homo sapiens, UniProt O75469); assay: ATG_PXRE_CIS: Factorial reporter gene assay (HepG2); type: cell-based; design: endogenous in cells; host or cells: HepG2; settings: HepG2 reporter
T2 sequence (O75469 1-434): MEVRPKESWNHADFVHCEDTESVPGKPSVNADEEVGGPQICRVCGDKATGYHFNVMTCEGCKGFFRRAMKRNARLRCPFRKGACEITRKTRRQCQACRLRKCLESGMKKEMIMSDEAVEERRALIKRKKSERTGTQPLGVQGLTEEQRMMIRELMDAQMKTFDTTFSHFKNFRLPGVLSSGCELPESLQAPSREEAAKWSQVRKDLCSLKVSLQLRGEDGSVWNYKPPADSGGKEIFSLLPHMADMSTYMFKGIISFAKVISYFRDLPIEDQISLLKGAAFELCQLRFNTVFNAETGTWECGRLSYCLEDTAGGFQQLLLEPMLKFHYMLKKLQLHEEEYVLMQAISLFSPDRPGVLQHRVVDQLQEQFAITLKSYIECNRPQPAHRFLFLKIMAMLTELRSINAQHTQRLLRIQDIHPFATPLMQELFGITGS
Method in brief: (§4)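 HepG2 cells were transfected with a multiple reporter transcription unit (MRTU) library of 48 transcription factor binding sites for the cis-acting PXRE assay. The ERRg, FXR and PPARg assays used a trans mammalian one-hybrid system with a further 25-unit nuclear receptor MRTU library. Chemicals were tested at seven concentrations, from the MTC downward in three-fold steps.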

[7] = target: T3, PPARG (peroxisome proliferator-activated receptor gamma) (Homo sapiens, UniProt P37231); assay: ATG_PPARg_TRANS: Factorial reporter gene assay (HepG2); type: cell-based; settings: HepG2 reporter
T3 construct: expressed in transfected cells; host or cells: HepG2
T3 sequence (P37231 1-505): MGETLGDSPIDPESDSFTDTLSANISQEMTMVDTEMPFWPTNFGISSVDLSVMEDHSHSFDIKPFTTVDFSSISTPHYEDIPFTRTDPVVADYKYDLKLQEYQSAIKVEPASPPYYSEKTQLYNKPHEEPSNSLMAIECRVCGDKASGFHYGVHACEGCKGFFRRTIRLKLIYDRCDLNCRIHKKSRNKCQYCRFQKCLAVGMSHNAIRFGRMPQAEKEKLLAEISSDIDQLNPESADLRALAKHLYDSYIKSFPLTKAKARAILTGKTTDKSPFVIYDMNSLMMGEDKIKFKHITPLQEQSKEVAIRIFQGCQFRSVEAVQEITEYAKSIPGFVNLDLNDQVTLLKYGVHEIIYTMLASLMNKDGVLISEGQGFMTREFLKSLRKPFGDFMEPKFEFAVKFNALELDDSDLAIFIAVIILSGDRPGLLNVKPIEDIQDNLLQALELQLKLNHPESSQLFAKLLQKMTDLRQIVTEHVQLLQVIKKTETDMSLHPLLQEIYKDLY
Method in brief: as §4

[8] = target: T1, ESR1 (estrogen receptor 1); assay: ATG_ERE_CIS: Factorial reporter gene assay (HepG2); type: cell-based; settings: HepG2 reporter
Protocol: (§5) A multiple reporter transcription unit (MRTU) library consisting of 48 transcription factor binding sites was transfected into the HepG2 human liver hepatoma cell line. In addition to the cis-acting reporter genes (CIS), a modification of the approach was used to generate a trans-system (TRANS) with a mammalian one-hybrid assay consisting of an additional 25 MRTU library reporting the activity of nuclear receptor super-family members. […] These assays were performed by Attagene Inc. (Morrisville NC) under contract to EPA.
(§6) In addition to the cis-acting reporter genes (CIS), a modification of the approach was used to generate a trans-system (TRANS) with a mammalian one-hybrid assay consisting of an additional 25 MRTU library reporting the activity of nuclear receptor super-family members. […] Chemicals were then tested in the CIS and TRANS assays at seven concentrations starting at the MTC and followed by three-fold serial dilutions. These assays were performed by Attagene Inc. (Morrisville NC) under contract to EPA. Detailed description of the methods, data and analysis methods for this dataset will be presented in a separate publication.

[9] = target: T4, RXRB (retinoid X receptor, beta) (Homo sapiens, UniProt P28702); assay: ATG_RXRb_TRANS: Factorial reporter gene assay (HepG2); type: cell-based; settings: HepG2 reporter
T4 construct: expressed in transfected cells; host or cells: HepG2
T4 sequence (P28702 1-533): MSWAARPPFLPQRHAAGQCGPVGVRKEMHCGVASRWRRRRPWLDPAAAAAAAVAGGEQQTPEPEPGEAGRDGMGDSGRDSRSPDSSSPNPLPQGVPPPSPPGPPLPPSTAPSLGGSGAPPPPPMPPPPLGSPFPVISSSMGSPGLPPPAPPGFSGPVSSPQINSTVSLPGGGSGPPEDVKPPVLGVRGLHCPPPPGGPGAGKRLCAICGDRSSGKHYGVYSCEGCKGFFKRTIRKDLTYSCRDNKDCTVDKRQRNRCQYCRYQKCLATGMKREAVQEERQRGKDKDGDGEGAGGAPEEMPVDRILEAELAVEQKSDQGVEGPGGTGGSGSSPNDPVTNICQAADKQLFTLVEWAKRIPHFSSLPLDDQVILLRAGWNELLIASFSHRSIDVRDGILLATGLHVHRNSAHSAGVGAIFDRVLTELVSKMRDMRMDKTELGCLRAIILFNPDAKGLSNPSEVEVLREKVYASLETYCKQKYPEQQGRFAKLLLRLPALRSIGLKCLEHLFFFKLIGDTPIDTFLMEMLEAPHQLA
Protocol: as §5, §6

Rat Liver [10] = settings: chronic study, rat liver; ref ToxRefDB; cited from earlier work; remark: listed apart in the source
PXR (NR1I2) [11] = target: T2, PXR (NR1I2); assay: NVS_NR_hPXR: Human PXR Fluormone PXR (SXR) green (cell-free HTS); type: binding
Method in brief: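 Cell-free biochemical binding assays; chemicals first screened at a single concentration of 25 […] M in duplicate wells. Signals normalised to same-plate solvent controls as percent of neutral control, and AC50 values came from Hill-equation fits of concentration-response curves.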

Rat Liver [12] = settings: chronic study, rat liver; ref ToxRefDB; cited from earlier work; remark: listed apart in the source
CAR (NR1I3) = target: T5, CAR (NR1I3) (Homo sapiens, UniProt Q14994); assay: ATG_CAR_TRANS: Factorial reporter gene assay (HepG2); type: cell-based; design: endogenous in cells; host or cells: HepG2; settings: HepG2 reporter
T5 sequence (Q14994 1-352): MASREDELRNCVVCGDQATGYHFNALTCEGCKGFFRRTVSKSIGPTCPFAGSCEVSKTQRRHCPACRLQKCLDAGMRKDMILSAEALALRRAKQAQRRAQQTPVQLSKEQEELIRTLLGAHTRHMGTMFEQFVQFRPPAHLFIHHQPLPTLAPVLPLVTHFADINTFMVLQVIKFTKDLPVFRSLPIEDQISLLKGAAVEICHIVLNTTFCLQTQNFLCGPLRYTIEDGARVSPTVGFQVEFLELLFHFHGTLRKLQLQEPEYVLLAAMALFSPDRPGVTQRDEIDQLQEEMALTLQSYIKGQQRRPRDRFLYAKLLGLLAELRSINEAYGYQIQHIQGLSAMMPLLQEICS
Protocol: as §5, §6

[13] = 2-year chronic feeding studies in both rat and mouse, ToxRefDB ref 5

Cc1nn(C)c(Oc2ccccc2)c1/C=N/OCc1ccc(C(=O)OC(C)(C)C)cc1 [(Z,E)-Fenpyroximate, tert-butyl 4-[({[(1E)-(1,3-dimethyl-5-phenoxy-1H-pyrazol-4-yl)methylene]amino}oxy)methyl]benzoate]
liver injury (liver histopathology) (liver [1]; [13]): negative for any liver injury

Cc1ccc(-c2c(Cl)nc(C#N)n2S(=O)(=O)N(C)C)cc1 [Cyazofamid, 4-chloro-2-cyano-N,N-dimethyl-5-(4-methylphenyl)-1H-imidazole-1-sulfonamide]
liver injury (liver histopathology) (liver [1]; in vivo): negative for any liver injury

CCNC(=O)NC(=O)/C(C#N)=N/OC [Cymoxanil, (2E)-2-cyano-N-(ethylcarbamoyl)-2-(methoxyimino)acetamide]
lesion progression group (LPG) (liver [2]): Cymoxanil

C=C(C)CN(CC)c1c([N+](=O)[O-])cc(C(F)(F)F)cc1[N+](=O)[O-] [Ethalfluralin, N-ethyl-N-(2-methylprop-2-en-1-yl)-2,6-dinitro-4-(trifluoromethyl)aniline]
liver injury (liver histopathology) (liver [1]; [13]): negative for any liver injury

CC1(C(=O)Nc2ccc(O)c(Cl)c2Cl)CCCCC1 [Fenhexamid, N-(2,3-dichloro-4-hydroxyphenyl)-1-methylcyclohexanecarboxamide]
liver injury (liver histopathology) (liver [1]; in vivo): negative for any liver injury

COP(=S)(OC)Oc1ccc(SC)c(C)c1 [Fenthion, O,O-dimethyl O-[3-methyl-4-(methylthio)phenyl] thiophosphate]
liver injury (liver histopathology) (liver [1]; [13]): negative for any liver injury

C=CCOC(Cn1ccnc1)c1ccc(Cl)cc1Cl (centres unmarked) [Imazalil, 1-[2-(allyloxy)-2-(2,4-dichlorophenyl)ethyl]-1H-imidazole]
activity with AhR (AhR): some activity | activity with PXR (PXR): some activity | activity with SR [3]: some activity | activity with CAR (CAR): some activity | activity with PPAR (PPAR): most consistently active

CCOP(=S)(OCC)Oc1nc(Cl)n(C(C)C)n1 [Isazofos, O-(5-chloro-1-isopropyl-1H-1,2,4-triazol-3-yl) O,O-diethyl thiophosphate]
liver injury (liver histopathology) (liver [1]; [13]): negative for any liver injury

CC1(C)C(C=C(Cl)Cl)C1C(=O)OCc1cccc(Oc2ccccc2)c1 (centres unmarked) [Permethrin, [3-(phenyloxy)phenyl]methyl 3-(2,2-dichloroethenyl)-2,2-dimethylcyclopropanecarboxylate]
activity with AhR (AhR): active | activity with PXR (PXR): active | activity with CAR (CAR): most consistently active

CCCN(CCOc1c(Cl)cc(Cl)cc1Cl)C(=O)n1ccnc1 [Prochloraz, N-propyl-N-[2-(2,4,6-trichlorophenoxy)ethyl]-1H-imidazole-1-carboxamide]
activity with PXR (PXR): active | activity with CAR (CAR): most consistently active

CCNP(=S)(OC)O/C(C)=C/C(=O)OC(C)C (centres unmarked) [Propetamphos, isopropyl (2E)-3-{[(ethylamino)(methoxy)phosphorothioyl]oxy}but-2-enoate]
liver injury (liver histopathology) (liver [1]; [13]): negative for any liver injury

C#CC(C)(C)NC(=O)c1cc(Cl)cc(Cl)c1 [Propyzamide, 3,5-dichloro-N-(1,1-dimethylprop-2-yn-1-yl)benzamide]
activity with AhR (AhR): active | activity with PXR (PXR): active | activity with CAR (CAR): most consistently active

CCOP(=S)(Oc1cnc(C(C)(C)C)nc1)OC(C)C (centres unmarked) [Tebupirimfos, O-(2-tert-butylpyrimidin-5-yl) O-ethyl O-isopropyl thiophosphate]
liver injury (liver histopathology) (liver [1]; [13]): negative for any liver injury

O=[N+]([O-])c1c(Cl)c(Cl)c(Cl)c(Cl)c1Cl [r278]
ATG_ERa_TRANS [4]: 4.284 | CHR_Rat_Liver_3_NeoplasticLesion (Rat Liver [5]): 0 | ATG_PXRE_CIS (PXR (NR1I2) [6]): 4.959 | ATG_PPARg_TRANS [7]: 4.409 | ATG_ERE_CIS [8]: 4.854 | ATG_RXRb_TRANS [9]: 4.387 | CHR_Rat_Liver_1_AnyLesion (Rat Liver [10]): 6 | NVS_NR_hPXR (PXR (NR1I2) [11]): 4.314 | CHR_Rat_Liver_2_PreneoplasticLesion (Rat Liver [12]): 6 | ATG_CAR_TRANS (CAR (NR1I3)): 4.377
